Results on three molecules are retold here after patent EP1207391A1, “METHOD FOR SCREENING TARGETING DDS PREPARATION” (Ajinomoto Co., Inc., priority 1999, dated 2001).

Assay [1] concerns the target T1, asialoglycoprotein receptor (Mus musculus, UniProt P24721+P34927).
T1 construct: Mouse primary cultured hepatocytes, which were cultured for overnight on the 12 well plate, isolated by collagenase perfusion; endogenous in cells; host or cells: mouse (C57BL/6) primary hepatocytes cultured overnight on 12-well plates
T1 sequence (P34927 1-284): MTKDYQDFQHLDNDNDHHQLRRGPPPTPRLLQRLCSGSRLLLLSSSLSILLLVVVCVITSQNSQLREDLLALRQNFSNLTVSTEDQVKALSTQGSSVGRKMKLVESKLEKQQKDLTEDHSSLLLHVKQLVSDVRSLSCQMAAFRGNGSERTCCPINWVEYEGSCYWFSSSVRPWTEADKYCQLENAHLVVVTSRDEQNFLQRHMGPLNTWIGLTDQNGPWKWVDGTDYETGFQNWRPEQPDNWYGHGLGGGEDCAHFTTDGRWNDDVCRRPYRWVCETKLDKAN
T1 sequence (P24721 1-301): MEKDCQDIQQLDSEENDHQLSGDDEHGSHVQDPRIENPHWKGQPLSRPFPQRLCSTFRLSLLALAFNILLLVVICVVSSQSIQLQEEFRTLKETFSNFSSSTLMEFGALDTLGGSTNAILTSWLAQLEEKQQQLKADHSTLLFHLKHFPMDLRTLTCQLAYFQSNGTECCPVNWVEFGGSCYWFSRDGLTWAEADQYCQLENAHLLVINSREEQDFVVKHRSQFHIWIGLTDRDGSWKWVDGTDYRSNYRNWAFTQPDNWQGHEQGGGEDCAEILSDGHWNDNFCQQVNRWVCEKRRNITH
As to the kind of experiment: Screening of ligand (1): bound 125I-ASOR after incubation of hepatocytes with unlabeled ligand (Example 17). In kind it is cell-based. To be noted: bound counts of 125I-ASOR after 10 minutes at 37°C with ligand at 100 - 2000 times of Kd; mean of 3. The protocol: A method for screening ligand having high ability to avoid the internalization without radio labeling each ligand and without calculation of kint and koff, was performed as follows.
Concretely, mouse primary cultured hepatocytes, which were isolated by a method of Berry et al. collagenase perfusion method shown in example and cultured overnight on 12 well plate, was washed twice with D-MEM (pH 7.4) (each 2 ml) containing D-PBS, 0.1% BSA and 20 mM Hepes. The same D-MEM medium (1 ml) was added thereto and preincubated at 37°C for 60 minutes. Cooled D-PBS (pH 5.0) containing 10 mM EDTA was added to the cells, allowed to stand under ice cooling for 4 minutes and washed twice with cooled D-PBS (2 ml). […] After 10 minutes, the plate was placed on the ice bath, added the cooled D-PBS (pH 5.0) containing 10 mM EDTA, allowed to stand under ice cooling for 4 minutes, and washed 4 times with cooled D-PBS (1 ml). D-MEM solution (0.4 ml) of 0.6 nM ^125I-ASOR was added to the cells in each well on the ice bath, and allowed to stand at 4°C for 60 minutes. On the ice bath, they were washed 4 times with cooled D-PBS (1 ml), allowed to stand at -80°C for more than 30 minutes, added 0.1 N sodium hydroxide (0.5 ml), and incubated at 37°C formore than 1 hour. Amount of receptor remained on the surface (ligand bound or free) other than the internalization by endocytosis was calculated by measuring the cell lysis with ã-counter (mean of 3 repeats).

For assay [2], the target named is T1, asialoglycoprotein receptor. As to the kind of experiment: Screening of ligand (2): kint and koff without labeling the ligand (Example 18). In kind it is cell-based. To be noted: for kint: 37°C for 10 minutes, 125I-ASOR read-out. Here is the method: A method for screening ligand having high ability to avoid the internalization without radio labeling each ligand to obtain kint and koff and to calculate simply the ability to avoid the internalization (= kint / koff) was performed as follows. […] Concretely, mouse primary cultured hepatocytes, which were isolated by the method of Berry et al. collagenase perfusion method shown in example and cultured overnight on 12 well plate, was washed twice with D-MEM (pH 7.4) (each 2 ml) containing D-PBS, 0.1% BSA and 20 mM Hepes. The same D-MEM medium (1 ml) was added thereto and preincubated at 37°C for 60 minutes. Cooled D-PBS (pH 5.0) containing 10 mM EDTA was added to the cells, allowed to stand under ice cooling for 4 minutes and washed twice with cooled D-PBS (2 ml). Using the thus prepared plate, experiments for calculating kint and koff were performed. […] Separately, the system without addition of the ligand was incubated for 0 minute and for 10 minutes at 37°C. After the necessary time has passed, immediately the plate was placed on the ice bath, added the cooled D-PBS (pH 5.0) containing 10 mM EDTA, allowed to stand under ice cooling for 4 minutes, and washed 4 times with cooled D-PBS (1 ml). D-MEM solution (0.4 ml) of 0.6 nM ^125I-ASOR was added to the cells in each well on the ice bath, and allowed to stand at 4°C for 60 minutes. […] Amount of receptor remained on the surface (ligand bound or free) other than the integration by endocytosis was calculated by measuring the cell lysis with ã-counter (mean of 3 repeats). The obtained amount of ratio activity was all divided by the concentration of the added solution (cpm/μl) to convert the distribution volume (μl/well). […] Separately, with regard to the system without ligand, only the said D-MEM medium is added 0.4 ml and incubated. […] The cell lytic solution was measured using γ-counter to calculate amount of the dissociated cold ligand once bound with the receptor. The amount of obtained radio activity is all divided by the concentration of the added solution (cpm/μl) and converted to the distribution volume (μl/well). With regards to the ligand non-added system and the ligand added system, the binding rate for 15 minutes is calculated by subtracting the distribution volume in the incubation for 5 minutes from the distribution volume in the incubation for 20 minutes. The binding rate without addition of the ligand is set as 100 and the binding rate of each ligand is converted into the percentage to the control (% of control).

Assay [3] shares this target. As to the kind of experiment: Binding inhibition experiment 2 of 125I-ASOR on mouse primary cultured hepatocytes (Example 9). To be noted: read-out: Ki value, 0.6 nM 125I-ASOR, 4°C for 60 minutes. The protocol: In the binding inhibition experiment according to the method of Biessen, et al. performed in example 8, a concentration of added ^125I-ASOR was 22 nM. Kd value of ASOR is approximately several nM and the concentration of added ASOR is higher that the actual Kd value, consequently, in the experiment in example 8, the binding inhibition by each ligand is difficult to generate and the Kd value is estimated too high. In order to evaluate newly synthesized ligand[(Gal)3(6) and (Gal)2(9)], calculation of more exact Ki value is necessary.
Mouse primary cultured hepatocytes, which were cultured for overnight on the 12 well plate, isolated by collagenase perfusion described in examples of Berry, et al., were washed twice with D-MEM (pH 7.4) (each 2 ml) containing D-PBS, 0.1% BSA and 20 mM Hepes, added said D-MEM medium (1 ml), and preincubated at 37°C for 60 minutes. The cooled D-PBS (pH 5.0) containing 10 mM EDTA was added to the cells, allowed to stand under ice-cooling for 4 minutes, and washed twice with cooled D-PBS (2 ml). […] The cells were washed, on the ice bath, 4 times with cooled D-PBS (1 ml), allowed to leave at -80°C for more than 30 minutes, added 0.1 N aqueous sodium hydroxide (0.5 ml), incubated at 37°C for more than 1 hour, and measured the cell lytic solution by using γ-counter to calculate amount of bound ^125I-ASOR on the surface of cells. […]

Assay [4] has as its target T2, asialoglycoprotein receptor (ASGP-R) (Mus musculus, UniProt P24721+P34927).
T2 construct: The liver parenchymal cells (in 4 ml Falcon tube, 0.6 - 1.0 × 10^6/0.5 ml in ice bath); endogenous in cells; host or cells: freshly isolated mouse liver parenchymal cells (C57BL/6) in suspension
T2 sequence (P34927 1-284): T1 sequence (P34927 1-284)
T2 sequence (P24721 1-301): T1 sequence (P24721 1-301)
As to the kind of experiment: Binding inhibition experiment of 125I-ASOR to mouse liver cells (Example 8, method of Biessen et al.). The conditions noted are these: for Ki: 4°C. The protocol:
Among these ligands, we have first examined two types of ligands for asialoglycoprotein receptor on hepatocytes, i.e. the three-branched galactose ligand [(Gal)3] of the following formula: [drawing 5] and the three-branched N-acetylgalactosamine ligand [(GalNAc)3] of the following formula: [drawing 6] and their binding forms to IL-2. At first, the Kd value, which is an index of the binding affinity to ASGP-R, was calculated. Table 1,
Binding inhibition experiments of ASOR to mouse liver cells using each ligand were performed according to a method of Biessen, et al. [Biessen, E.A.L. et al., J. Biol. Chem., 271(45): 28024-28030 (1996)].
The liver parenchymal cells (in 4 ml Falcon tube, 0.6 - 1.0 × 10^6/0.5 ml in ice bath) was added to D-PBS containing 2% BSA. Inhibitor 0.25 ml prepared for various concentration with D-PBS containing 2% BSA was added thereto. ^125I-ASOR 0.25 ml (22 nM) in D-PBS containing 2% BSA was added therein and stirred gently at 4°C for 2 hours.
The mixture was centrifuged at 50G for 1 minute, discarded the supernatant solution, added D-PBS containing 2% BSA and stirred, then again centrifuged at 50G for 1 minute, and discarded the supernatant medium. This procedure was repeated again and the medium was measured by γ-counter.
Thereafter, 0.1 N NaOH containing 10% SDS 1 ml was added thereto, and the protein concentration was measured by Lowry method using the protein assay kit (Biorad Inc.).
As a result, depending on the increase in the added concentration of (GalNAc)3 and (Gal)3, […] was dissociated with almost monophasic manner. Data of dissociation obtained by three repeated experiments were analyzed using non-linear single site model to calculate the binding inhibition constant (Ki).
Large differences were observed between two types of the ligand.

Values joined by “and” are separate entries in the source; they are usually repeats but may differ in a detail not shown here. Identical values can stand only once. Like-named read-outs stand apart in the source and are kept apart here.

Molecule `NCCCCCC(=O)N[C@@H](CCC(=O)NCCOCCOCCO[C@@H]1O[C@H](CO)[C@H](O)[C@H](O)[C@H]1O)C(=O)NCCOCCOCCO[C@@H]1O[C@H](CO)[C@H](O)[C@H](O)[C@H]1O` (atropisomer, axis not shown) [(Gal)2(9)] displayed a Bound in assay [1] of 1670 cpm. In assay [2] (unlabeled ligand, 4°C, 125I-ASOR binding rate for 15 minutes, read-out: koff (converted)), the koff (usually the first-order rate constant of dissociation) is 0.000395 s⁻¹. Further, the kint in assay [2] (unlabeled ligand) stood at 0.0605 min⁻¹.

Consider `NCCCCCC(=O)NC(CCC(=O)NCCOCCO[C@@H]1O[C@H](CO)[C@H](O)[C@H](O)[C@H]1O)C(=O)NC(CCC(=O)NCCOCCO[C@@H]1O[C@H](CO)[C@H](O)[C@H](O)[C@H]1O)C(=O)NCCOCCO[C@@H]1O[C@H](CO)[C@H](O)[C@H](O)[C@H]1O` (stereo partly drawn) [(Gal)3(6)], for which the Ki – broadly, a dissociation constant, usually derived from enzyme kinetics or from competition with a known ligand – in assay [3] was found to be 0.369 µM. The same molecule showed a Bound in assay [1] of 2015 cpm. The molecule further gave a koff in assay [2] of 0.00113 s⁻¹. Besides, the kint in assay [2] (unlabeled ligand) came to 0.0417 min⁻¹.

For the molecule `NCCCCCC(=O)NC(CCC(=O)NCCOCCOCCO[C@@H]1O[C@H](CO)[C@H](O)[C@H](O)[C@H]1O)C(=O)NC(CCC(=O)NCCOCCOCCO[C@@H]1O[C@H](CO)[C@H](O)[C@H](O)[C@H]1O)C(=O)NCCOCCOCCO[C@@H]1O[C@H](CO)[C@H](O)[C@H](O)[C@H]1O` (stereo partly drawn) [(Gal)3, three-branched galactose ligand], in assay [4] (ratio of affinities from Kd values), the “affinity relative to (GalNAc)3” value is reported as “approximately 1/200”. In addition, the Ki in assay [4] (read-out: Binding inhibitory constant (Ki) Ave., average of three repeated experiments, 125I-ASOR 22 nM) is 350 µM and 354 µM; in assay [4] (read-out: Binding inhibitory constant (Ki), individual experiments 1-3, binding of 125I-ASOR (22 nM) to mouse hepatocytes), 681 µM and 351 µM and 292 µM; in assay [3] it was 0.157 µM. For the same molecule, in assay [4] (read-out: Kd value, calculated from the Ki of Table 1), the Kd (as a rule, a measure of binding affinity in units of concentration) is 354 µM. The Bound in assay [1] was 1784 cpm. The molecule further gave a koff in assay [2] of 0.000943 s⁻¹. In addition, the kint in assay [2] (unlabeled ligand) is 0.054 min⁻¹.
